Values after ≈ are worked out from the molar mass of the structure shown. “Also recorded” adds a separate entry of the source.
What was measured:
Capan1-LVT = experiment: Inhibition of proliferation (XTT viability assay, 4 days); type: cell-based; conditions: Homo sapiens, 96 h, 4 days exposure
Procedure: To analyze dose-response curves of each chemotherapeutic agent, a proliferation assay was performed.
Cells were seeded in 96 well plates and after 4-6 hours gemcitabine or oxaliplatin was added in following concentrations: 1000, 500, 250, 100 and 20 ng/ml. The proliferation assay was incubated for 4 days at 37° C. and 5% CO2. 50 μl XTT complete reagent (50 parts XTT+1 part coupl. reagent mixed) was added and incubated at 37° C. Measurement of absorbance (cells plus supernatant) was done with the Tecan Safire after 3 h and 4 h. Inhibition of proliferation was calculated compared to medium values set as 100%. EC50 values for gemcitabine and oxaliplatin were calculated in the GraphPad Prism program.

[1] = system: CLDN18.2 expression in DANG; experiment: Effect of chemotherapeutic agents on CLDN18.2 expression (RT-PCR, western blot); type: cell-based, human; conditions: DANG pretreated 2 days, Gem 1 ng/ml or Gem 1 ng/ml+Ox 10 ng/ml, versus untreated
Procedure: FIGS. 30A and 30B show the effect of treatment with chemotherapeutic agents on CLDN18.2 expression (RNA).
Actin was used to show equal loading of proteins.
The area of each bar is divided to indicate the percentage of cells in G0/G1, S and G2 phase.
For RNA isolation from pancreatic cancer cell lines, cells were seeded in 10 cm dishes and grown for 2-3 days until 80% confluent. RNA was isolated according to instructions supplied with the RNeasy® Mini Kit (Qiagen). cDNA preparation was performed following manufacturers instructions provided with the SuperScript® III First Strand kit (Invitrogen). RNA and cDNA samples were stored at −80° C.
Quantitative analysis of CLDN18.2 transcripts was performed by amplifying oligo(dT)-primed cDNAs in a 40 cycle PCR reaction using PCR primers #5054s (5′-[…]-3′) and #5060 as (5′-[…]-3′) differentiating between CLDN18.1 and CLDN18.2 isoforms. The reaction was prepared with SYBR Green (QuantiTect SYBR Green PCR Kit, Qiagen), which intercalates in double stranded DNA. […]
For isolation of proteins of pancreatic cancer cell lines, cells were seeded in 10 cm dishes and grown for 2-3 days until 80% confluent. […] Protein concentration was measured in a spectrophotometer (Absorption at 280 nm) and samples were stored at −80° C. until use. […]

BxPC3-CLDN18 = experiment: IMAB362 mediated apoptosis of gemcitabine treated pancreas tumor cells; type: cell-based, human; conditions: BxPC3-CLDN18, medium or 100 ng/ml gemcitabine, after 48 hours
Procedure: BxPC3-CLDN18 were cultivated in medium or medium+100 ng/ml gemcitabine. Apoptotic cell fraction of […] were shifted. Similar shifts were obtained by incubation of tumor cells with Camptotecin.
Following the indicated treatments, apoptosis was measured by annexin V binding (detection kit I) or by a DNA fragmentation assay (Apo-Direct) as recommended by the manufacturer (PharMingen, San Diego, Calif.). Briefly, cells floating in the supernatant were combined with the adherent fraction, which was trypsinized and then washed. An aliquot of 5 E+05 cells was incubated with annexin V-APC and PI for 15 min at room temperature in the dark. Cells were immediately analyzed by flow cytometry. Viable cells exclude both annexin V-APC and PI. Early apoptotic cells are annexin V-APC-positive and PI-negative, whereas cells that are no longer viable due to apoptotic or necrotic cell death are positively stained by both annexin V and PI. Percentage of stained cells in each quadrant was quantified using FlowJo software (BD Biosciences, Franklin Lakes, N.J.).
The apoptotic assay based on DNA fragmentation was performed as follows. Treated cells (adherent and floating) were fixed in 70% icecold EtOH overnight. […] Cells were rinsed, incubated in RNase A/propidium iodide in the dark for 30 min at room temperature to stain total DNA, then analyzed by flowvcytometry. […]

CLDN18.1 = CLDN18.1 (Homo sapiens, UniProt P56856); experiment: Binding to other claudin family members (background)
Sequence of CLDN18.1 (P56856 whole entry): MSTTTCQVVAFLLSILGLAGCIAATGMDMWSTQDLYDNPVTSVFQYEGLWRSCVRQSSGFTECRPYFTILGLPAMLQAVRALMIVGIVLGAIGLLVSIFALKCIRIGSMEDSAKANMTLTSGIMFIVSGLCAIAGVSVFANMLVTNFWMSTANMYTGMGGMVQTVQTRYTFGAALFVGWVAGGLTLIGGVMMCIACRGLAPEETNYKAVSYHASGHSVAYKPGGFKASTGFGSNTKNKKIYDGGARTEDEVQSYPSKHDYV

[2] = Repeated dose toxicity study in mice; type: in vivo
AsPC1 = experiment: IMAB362-mediated ADCC assay; type: cell-based, human; conditions: at least 2 donors
CFPAC1 = experiment: IMAB362-mediated ADCC assay; type: cell-based, human; conditions: at least 2 donors
HUP-T4 = experiment: IMAB362-mediated ADCC assay; type: cell-based, human; conditions: at least 2 donors
KCI-MOH = experiment: IMAB362-mediated ADCC assay; type: cell-based, human; conditions: at least 2 donors

| Compound | IC50 (Capan1-LVT) [ng/mL] | mRNA and protein levels of CLDN18.2 [1] | mRNA and protein levels of CLDN18.2 ([1]; listed as Gem) | induction of apoptosis (BxPC3-CLDN18) | binding to CLDN18.1 and other claudin family members (CLDN18.1) | gastric toxicity ([2]; any toxicity study) | tolerability of repeated doses i.v. ([2]; weekly for 3 months, up to 400 mg/kg) | ADCC EC50 (AsPC1) | ADCC Max. lysis (AsPC1) | ADCC EC50 (CFPAC1) | ADCC Max. lysis (CFPAC1) | ADCC EC50 (HUP-T4) | ADCC Max. lysis (HUP-T4) | ADCC EC50 (KCI-MOH) |
| --- | --- | --- | --- | --- | --- | --- | --- | --- | --- | --- | --- | --- | --- | --- |
| Nc1ccn([C@@H]2O[C@H](CO)[C@@H](O)C2(F)F)c(=O)n1 [gemcitabine, 4-amino-1-(2-deoxy-2,2-difluoro-β-D-erythro-pentofuranosyl)pyrimidin-2(1H)-one] | ~1 (≈ 3.8 nM) | increased; also recorded: upregulation | upregulation |  |  |  |  |  |  |  |  |  |  |  |
| IMAB362: chimeric IgG1 antibody directed against CLDN18.2, developed by Ganymed Pharmaceuticals AG |  |  |  | Apoptosis induced by cross-linking | does not bind | no gastric toxicity | well tolerated | n.m.. | n.m. | n.m. | 0-1.5% | n.m. | n.m. | n.m. |
